The values that follow come from ChEMBL document CHEMBL3046959, “Influence of Absolute Configuration of Indanofan on Herbicidal Activity” (2001).

This experiment has as its system Echinochloa crus-galli. The experiment can be described thus: Herbicidal activity against 2.5 leaf stage of Echinochloa crus-galli (barnyard grass) after 2 weeks under greenhouse condition by pot test. Format: functional.

The source made the active and inactive calls. The calls are words filed in the database; no cut-off is given here.

As to `CCC1(CC2(c3cccc(Cl)c3)CO2)C(=O)c2ccccc2C1=O` (racemic), the ED90 entry is “inactive”.

The molecule `CCC1(CC2(c3cccc(Cl)c3)CO2)C(=O)c2ccccc2C1=O` (single isomer, unassigned; (+)) [(RS)-INDANOFAN] had an ED90 of 0.0254 KgAi/ha.

`CCC1(CC2(c3cccc(Cl)c3)CO2)C(=O)c2ccccc2C1=O` (single isomer, unassigned; (-)) [(RS)-INDANOFAN]: the ED90 turned out to be 0.0524 KgAi/ha.
